The results in this text go back to patent US20240016942A1, “STAT DEGRADERS AND USES THEREOF” (Kymera Therapeutics, Inc., priority 2020, published 2024).

T1 sequence (P40763 whole entry): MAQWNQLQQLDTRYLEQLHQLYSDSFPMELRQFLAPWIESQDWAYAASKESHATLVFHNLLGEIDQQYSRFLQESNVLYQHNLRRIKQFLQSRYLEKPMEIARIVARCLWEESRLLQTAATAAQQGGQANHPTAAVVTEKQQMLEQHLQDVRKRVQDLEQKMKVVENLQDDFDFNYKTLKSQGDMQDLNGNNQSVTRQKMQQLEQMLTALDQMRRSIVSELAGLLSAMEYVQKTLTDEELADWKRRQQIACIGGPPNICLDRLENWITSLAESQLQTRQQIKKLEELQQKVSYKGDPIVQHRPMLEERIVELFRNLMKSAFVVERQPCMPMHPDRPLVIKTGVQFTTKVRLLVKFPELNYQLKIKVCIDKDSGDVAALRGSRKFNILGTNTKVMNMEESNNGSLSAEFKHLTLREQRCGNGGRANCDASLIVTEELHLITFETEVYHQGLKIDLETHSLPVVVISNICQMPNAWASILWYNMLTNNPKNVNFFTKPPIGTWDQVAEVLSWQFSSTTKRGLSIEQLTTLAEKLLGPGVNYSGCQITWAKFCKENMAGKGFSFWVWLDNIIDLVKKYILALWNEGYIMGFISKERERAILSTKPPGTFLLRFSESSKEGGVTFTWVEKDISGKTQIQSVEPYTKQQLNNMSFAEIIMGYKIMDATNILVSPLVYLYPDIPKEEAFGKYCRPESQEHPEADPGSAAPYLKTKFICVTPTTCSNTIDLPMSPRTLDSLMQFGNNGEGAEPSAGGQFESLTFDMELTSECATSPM

The assay addresses T1, STAT3 (Homo sapiens, UniProt P40763).
T1 construct: expressed in transfected cells; host or cells: A549
Kind of assay: STAT3 HiBiT degradation assay (Nano-Glo HiBiT lytic detection) in transfected A549 cells. It is filed as cell-based. To be noted: 24 h compound incubation, read-out: STAT3 HiBIT A549 degradation 24 h: Average external-Abs DC50. The procedure: Example 1. HiBiT Assay Protocol
Compound preparation and Cell seeding: The transfected A549 cells were harvested from dish into cell culture medium and cell numbers counted. Cells were diluted with culture medium to the desired density and 30 μL of cell suspension (about 2000 cells/well) were added into each well of a 384-well cell culture plate as designated and transferred into 37° C. 5% CO2 incubator for 24 h. Compounds were dissolved to 10 mM stock solution and 12 μL of the stock solution was transferred to a 384 LDV-plate. 3 fold, 10-point dilution was performed by transferring 4 μL compound into 8 μL DMSO using a TECAN (EVO200) liquid handler. 30 μl of diluted compound from compound source plate was transferred into the cell plate as designated by using Echo550 and transferred into 37° C. 5% CO2 incubator for 24 h.
Detection: Plates were removed from incubators and equilibrated at room temperature for 15 minutes. Nano-Glo Hibit Lytic Detection reagent (Promega Cat #N3040) was thawed and equilibrated to room temperature before the experiment. 30 μL of Nano-Glo Hibit Lytic Detection reagent was added into each well to be detected. The plates were held at room temperature for 10 min followed by reading on EnSpire.
Data analysis: The remaining activity was calculated following the formula: Remaining Activity (%)=100%×(Lumsample−LumNC)/(LumPC−LumNC). Calculate the IC50 by fitting the curve using Xlfit (v5.3.1.3), equation 201: fit=(A+((B−A)/(1+((x/C)^D)))); A: Botton; B: Top; C: IC50; and D: Slope.
The letter codes for STAT3 DC50 include: A (<0.01 μM), B (0.01-0.1 μM), C (0.1-1.0 μM), and D (>1.0 μM).
For `Cc1ncsc1-c1ccc([C@H](C)NC(=O)[C@@H]2C[C@@H](O)CN2C(=O)[C@@H](NC(=O)CCCCc2cccc(OC[C@H](CCC(N)=O)NC(=O)[C@@H]3CC[C@@H]4CCCC[C@H](NC(=O)c5cc6cc(C(=O)P(=O)(O)O)ccc6[nH]5)C(=O)N43)c2Cl)C(C)(C)C)cc1` [I-1], the DC50 is under 0.01 µM.
For the molecule `Cc1ncsc1-c1ccc([C@H](C)NC(=O)[C@@H]2C[C@@H](O)CN2C(=O)[C@@H](NC(=O)CCCc2cccc(OC[C@H](CCC(N)=O)NC(=O)[C@@H]3CC[C@@H]4CCCC[C@H](NC(=O)c5cc6cc(C(=O)P(=O)(O)O)ccc6[nH]5)C(=O)N43)c2Cl)C(C)(C)C)cc1` [I-2], the DC50 is under 0.01 µM.
`Cc1ncsc1-c1ccc([C@H](C)NC(=O)[C@@H]2C[C@@H](O)CN2C(=O)[C@@H](NC(=O)CCCCc2cccc(OC[C@H](CCC(N)=O)NC(=O)[C@@H]3CC[C@@H]4CCCC[C@H](NC(=O)c5cc6cc(C(=O)P(=O)(O)O)ccc6[nH]5)C(=O)N43)c2F)C(C)(C)C)cc1` [I-3]: the DC50 is under 0.01 µM.
On to `Cc1cc(CCCCCC(=O)N[C@H](C(=O)N2C[C@H](O)C[C@H]2C(=O)N[C@@H](C)c2ccc(-c3scnc3C)cc2)C(C)(C)C)c(F)c(OC[C@H](CCC(N)=O)NC(=O)[C@@H]2CC[C@@H]3CCCC[C@H](NC(=O)c4cc5cc(C(=O)P(=O)(O)O)ccc5[nH]4)C(=O)N32)c1` [I-4], for which the DC50 was under 0.01 µM.
The value for `Cc1cc(CCCC(=O)N[C@H](C(=O)N2C[C@H](O)C[C@H]2C(=O)N[C@@H](C)c2ccc(-c3scnc3C)cc2)C(C)(C)C)c(Cl)c(OC[C@H](CCC(N)=O)NC(=O)[C@@H]2CC[C@@H]3CCCC[C@H](NC(=O)c4cc5cc(C(=O)P(=O)(O)O)ccc5[nH]4)C(=O)N32)c1` [I-5] was under 0.01 µM; that for `Cc1ncsc1-c1ccc([C@H](C)NC(=O)[C@@H]2C[C@@H](O)CN2C(=O)[C@@H](NC(=O)CCCCCc2cccc(OC[C@H](CCC(N)=O)NC(=O)[C@@H]3CC[C@@H]4CCCC[C@H](NC(=O)c5cc6cc(C(=O)P(=O)(O)O)ccc6[nH]5)C(=O)N43)c2F)C(C)(C)C)cc1` [I-6] was 0.01 to 0.1 µM; that for `Cc1cc(CCCC(=O)N[C@H](C(=O)N2C[C@H](O)C[C@H]2C(=O)N[C@@H](C)c2ccc(-c3scnc3C)cc2)C(C)(C)C)c(F)c(OC[C@H](CCC(N)=O)NC(=O)[C@@H]2CC[C@@H]3CCCC[C@H](NC(=O)c4cc5cc(C(=O)P(=O)(O)O)ccc5[nH]4)C(=O)N32)c1` [I-7] was under 0.01 µM.
Turning to `Cc1ncsc1-c1ccc([C@H](C)NC(=O)[C@@H]2C[C@@H](O)CN2C(=O)[C@@H](NC(=O)CCCc2cc(F)cc(OC[C@H](CCC(N)=O)NC(=O)[C@@H]3CC[C@@H]4CCCC[C@H](NC(=O)c5cc6cc(C(=O)P(=O)(O)O)ccc6[nH]5)C(=O)N43)c2Cl)C(C)(C)C)cc1` [I-8], the DC50 was under 0.01 µM.
Regarding `Cc1ncsc1-c1ccc([C@H](C)NC(=O)[C@@H]2C[C@@H](O)CN2C(=O)[C@@H](NC(=O)CCCc2cccc(OC[C@H](CCC(N)=O)NC(=O)[C@@H]3CC[C@@H]4CCCC[C@H](NC(=O)c5cc6cc(C(=O)P(=O)(O)O)ccc6[nH]5)C(=O)N43)c2F)C(C)(C)C)cc1` [I-9], the DC50 is under 0.01 µM.
On to `Cc1ncsc1-c1ccc(C2(NC(=O)[C@@H]3C[C@@H](O)CN3C(=O)[C@@H](NC(=O)CCCCc3cccc(OC[C@H](CCC(N)=O)NC(=O)[C@@H]4CC[C@@H]5CCCC[C@H](NC(=O)c6cc7cc(C(=O)P(=O)(O)O)ccc7[nH]6)C(=O)N54)c3Cl)C(C)(C)C)CC2)cc1` [I-10], for which the DC50 was under 0.01 µM.
In the case of `Cc1ncsc1-c1ccc([C@H](C)NC(=O)[C@@H]2C[C@@H](O)CN2C(=O)[C@@H](NC(=O)CCCc2cccc(OC[C@H](CCC(N)=O)NC(=O)[C@@H]3CCCN3C(=O)[C@H](CO)NC(=O)c3cc4cc(C(=O)P(=O)(O)O)ccc4[nH]3)c2Cl)C(C)(C)C)cc1` [I-11], the DC50 lay in the range of 0.01 to 0.1 µM.
`Cc1ncsc1-c1ccc([C@H](C)NC(=O)[C@@H]2C[C@@H](O)CN2C(=O)[C@@H](NC(=O)CCCc2cccc(OC[C@H](CCC(N)=O)NC(=O)[C@@H]3CCCN3C(=O)[C@@H](NC(=O)c3cc4cc(C(=O)P(=O)(O)O)ccc4[nH]3)C3CCCCC3)c2Cl)C(C)(C)C)cc1` [I-12]: the DC50 was in the range of 0.01 to 0.1 µM.
As for `Cc1ncsc1-c1ccc([C@H](C)NC(=O)[C@@H]2C[C@@H](O)CN2C(=O)[C@@H](NC(=O)CCCc2cccc(OC[C@H](CCC(N)=O)NC(=O)[C@@H]3CCCN3C(=O)CNC(=O)c3cc4cc(C(=O)P(=O)(O)O)ccc4[nH]3)c2Cl)C(C)(C)C)cc1` [I-13], the DC50 was 0.01 to 0.1 µM.
In the case of `Cc1ncsc1-c1ccc([C@H](C)NC(=O)[C@@H]2C[C@@H](O)CN2C(=O)[C@@H](NC(=O)CCCc2cccc(OC[C@H](CCC(N)=O)NC(=O)[C@@H]3CCCN3C(=O)[C@@H](NC(=O)c3cc4cc(C(=O)P(=O)(O)O)ccc4[nH]3)C(C)(C)C)c2Cl)C(C)(C)C)cc1` [I-14], the DC50 was 0.1 to 1 µM.
The value for `Cc1ncsc1-c1ccc([C@H](C)NC(=O)[C@@H]2C[C@@H](O)CN2C(=O)[C@@H](NC(=O)CCCc2cccc(OC[C@H](CCC(N)=O)NC(=O)[C@@H]3CCCN3C(=O)[C@@H](NC(=O)c3cc4cc(C(=O)P(=O)(O)O)ccc4[nH]3)C(C)C)c2Cl)C(C)(C)C)cc1` [I-15, 2-[[(2S)-1-[(2S)-2-[[(2S)-4-carbamoyl-1-[2-chloro-3-(3-[[(2S)-1-[(2S,4R)-4-hydroxy-2-[[(1S)-1-[4-(4-methyl-1,3-thiazol-5-yl)phenyl]ethyl]carbamoyl]pyrrolidin-1-yl]-3,3-dimethyl-1-oxobutan-2-yl]carbamoyl]propyl)phenoxy]butan-2-yl]carbamoyl]pyrrolidin-1-yl]-3-methyl-1-oxobutan-2-yl]carbamoyl]-1H-indole-5-carbonylphosphonic acid] was 0.01 to 0.1 µM.
For `CNC(=O)[C@@H]1Cc2cc(CCCCCCc3ccc4c(c3)n(C)c(=O)n4C3CCC(=O)NC3=O)cc3c2N1C(=O)[C@@H](NC(=O)c1cc2cc(C(=O)P(=O)(O)O)ccc2[nH]1)CC3` (some centres unmarked) [I-20], the DC50 was over 1 µM.
With `C[C@H](CCC(=O)N(C)C)NC(=O)[C@@H]1Cc2cc(CCCCCCc3ccc4c(c3)n(C)c(=O)n4C3CCC(=O)NC3=O)cc3c2N1C(=O)[C@@H](NC(=O)c1cc2cc(C(=O)P(=O)(O)O)ccc2[nH]1)CC3` (some centres unmarked) [I-21], the DC50 was over 1 µM.
The value for `CNC(=O)CC[C@@H](C)NC(=O)[C@@H]1Cc2cc(CCCCCCc3ccc4c(c3)n(C)c(=O)n4C3CCC(=O)NC3=O)cc3c2N1C(=O)[C@@H](NC(=O)c1cc2cc(C(=O)P(=O)(O)O)ccc2[nH]1)CC3` (some centres unmarked) [I-22] was over 1 µM; that for `CC(=O)N1CC[C@H]2CC[C@@H](C(=O)N[C@@H](CCC(N)=O)COc3cc(C)cc(CCCCCC(=O)N[C@H](C(=O)N4C[C@@H](O)C[C@H]4C(=O)N[C@@H](C)c4ccc(-c5scnc5C)cc4)C(C)(C)C)c3F)N2C[C@@H](NC(=O)c2cc3cc(C(=O)P(=O)(O)O)ccc3[nH]2)C1` [I-23] was over 1 µM.
`CC(=O)N1CC[C@H]2CC[C@@H](C(=O)N[C@H](CCC(N)=O)COc3cccc(CCCCC(=O)N[C@H](C(=O)N4C[C@H](O)C[C@H]4C(=O)N[C@@H](C)c4ccc(-c5scnc5C)cc4)C(C)(C)C)c3Cl)N2C(=O)[C@@H](NC(=O)c2cc3cc(C(=O)P(=O)(O)O)ccc3[nH]2)C1` [I-24]: the DC50 was in the range of 0.1 to 1 µM.
